Source: ChEMBL document CHEMBL5727383, “[1,2,3]triazolo[4,5-D]pyrimidine derivatives” (2019)

Target: Cannabinoid receptor 2 (Homo sapiens, UniProt P34972)
Assay: Radioligand Binding Assay: The affinity of the compounds of the invention for cannabinoid receptors was determined using recommended amounts of membrane preparations (PerkinElmer) of human embryonic kidney (HEK) cells expressing the human CNR1 or CNR2 receptors in conjunction with 1.5 or 2.6 nM [3H]-CP-55,940 (Perkin Elmer) as radioligand, respectively. Binding was performed in binding buffer (50 mM Tris, 5 mM MgCl2, 2.5 mM EDTA, and 0.5% (wt/vol) fatty acid free BSA, pH 7.4 for CB1 receptor and 50 mM Tris, 5 mM MgCl2, 2.5 mM EGTA, and 0.1% (wt/vol) fatty acid free BSA, pH 7.4 for CB2 receptor) in a total volume of 0.2 mL for 1 h at 30° C. shaking. The reaction was terminated by rapid filtration through microfiltration plates coated with 0.5% polyethylenimine (UniFilter GF/B filter plate; Packard). Bound radioactivity was analyzed for Ki using nonlinear regression analysis (Activity Base, ID Business Solution, Limited), with the Kd values for [3H]CP55,940 determined from saturation experiments.

Chain of Cannabinoid receptor 2 (P34972 whole entry): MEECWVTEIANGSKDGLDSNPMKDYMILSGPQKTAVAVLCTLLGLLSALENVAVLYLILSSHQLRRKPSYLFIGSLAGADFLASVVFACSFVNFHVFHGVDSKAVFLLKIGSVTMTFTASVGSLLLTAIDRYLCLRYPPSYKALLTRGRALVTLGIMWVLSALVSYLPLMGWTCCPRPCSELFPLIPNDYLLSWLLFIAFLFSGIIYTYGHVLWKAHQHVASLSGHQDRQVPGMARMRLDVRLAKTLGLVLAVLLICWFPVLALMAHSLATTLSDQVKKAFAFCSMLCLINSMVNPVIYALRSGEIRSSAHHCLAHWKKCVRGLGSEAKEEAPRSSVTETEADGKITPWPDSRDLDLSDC

In the case of CC(C)(C)c1nc(N2CCC(F)(F)C2)c2nn(Cc3ccc(C4(C(F)(F)F)N=N4)cc3Cl)nc2n1, the Ki is reported as 2340 nM.
